Source: patent US20250205265A1, “ASPERULOSIDE AS AN AGENT FOR IMPROVING VASCULAR AND METABOLIC FUNCTION IN OBESITY: ROLE OF NRF2 ACTIVATION” (The Chinese University of Hong Kong, priority 2023, published 2025)

Tests used:
[1] = test system: Nrf2/antioxidant responsive element (ARE); test: ARE binding activity, luciferase reporter assay in endothelial cells; type: cell-based; settings: luciferase reporter assay
Protocol: (§1) After induction of obesity in C57BL/6 male mice fed with the high-fat diet for twelve weeks, they were treated daily with ASP (50 mg/kg) via oral gavage for seven weeks in vivo study. C57BL/6 mice aortae were used for ex vivo studies. Endothelial cells, HepG2 and primary adipocytes were used for in vitro studies. Vascular function was determined by wire myograph. H&E staining was employed for histological examination. Oil Red O staining was used to determine lipid droplets in tissues and cells. DHE and MitoSOX staining were used to detect ROS levels. QPCR, aortic en-face immunofluorescence staining, and Western blotting were used to analyze mRNA and protein expressions. ARE binding activity was determined by Dual luciferase reporter assay. Small interfering (si)RNA of Nrf2 and HO-1, inhibitors of Nrf2 (ML385, Cat. No.: HY-100523) and HO-1 (OB-24, HY-118487) were used to elucidate the mechanistic pathway of ASP's action.

Nrf2 = Nrf2 nuclear translocation in endothelial cells; type: cell-based; settings: ML385 co-treatment; immunofluorescence and western blotting
Protocol: After induction of obesity in C57BL/6 male mice fed with high fat diet for twelve weeks, they were treated daily with ASP (50 mg/kg) via oral gavage for seven weeks in vivo study. C57BL/6 mice aortae were used for ex vivo study and endothelial cells were used for in vitro study. Vascular function was determined by wire myograph. DHE and MitoSOX staining were used to detect ROS levels. QPCR, aortic en-face immunofluorescence staining, and Western blotting were used to analyze mRNA and protein expressions. Small interfering (si)RNA of Nrf2 and HO-1, inhibitors of Nrf2 (ML385, Cat. No.: HY-100523) and HO-1 (OB-24, HY-118487) were used to elucidate the mechanistic pathway of ASP's action.
as §1

SMILES: Cc1ccccc1C(=O)N1CCc2cc(-c3nc(NC(=O)Cc4ccc5c(c4)OCO5)sc3C)ccc21 [ML385, reference compound]
- effect on activation of ARE binding by ASP [1]: attenuates the activation of ARE binding by ASP
- effect on Nrf2 nuclear translocation stimulated by ASP (Nrf2): blocks Nrf2 nuclear translocation stimulated by ASP
